Laboratory results reported in patent US12234247B2, “Heterocyclic compound and harmful arthropod-controlling composition containing same” (SUMITOMO CHEMICAL COMPANY, LIMITED, priority 2019, dated 2025).

System: cotton aphids (Aphis gossypil)
Assay: Test method 1: foliar spray on cucumber seedlings infested with cotton aphids
Format: in vivo
Settings: 200 ppm, spray 10 mL/seedling, counted 5 days after spraying, 25° C.
Description: Next, Test Examples are used to show effects of the Present compounds on harmful arthropods. In the following Test Examples, the tests were carried out at 25° C. […] Cucumber (Cucumis sativus) seedlings (on the developmental stage of the second true leaf) are planted in a container and approximately 30 cotton aphids (Aphis gossypil) (all stages of life) are released onto the cucumber seedlings. After 1 day, each of said diluted solutions is sprayed into the seedlings in a ratio of 10 mL/seedling. After additional 5 days, the number of the surviving insects is examined and the controlling value is calculated by the following equation. Controlling value (%)={1-(Cb×Tai)/(Cai×Tb)}×100 wherein the symbols in the equation represent the following meanings. • Cb: Number of the test insects in non-treated area; • Cai: Number of the surviving insects at the time of the investigation in non-treated area; • Tb: Number of the test insects in treated area; • Tai: Number of the surviving insects at the time of the investigation in treated area; Here, the “non-treated area” represents an area where the same treatment procedure as that of the treated area is done except for not using each test compound.

## CCS(=O)(=O)c1c(-n2nc3ccc(C(F)(F)F)cn3c2=O)nc2ccc(C(F)(F)F)cn12 [compound 2]
  controlling value: ≥ 90%
